Assay results from patent US20240043416A1, “SALT AND CRYSTAL FORM OF HA INHIBITOR COMPOUND” (SICHUAN HAISCO PHARMACEUTICAL CO., LTD., priority 2021, published 2024).
Counter-ions that a name gives are not always drawn. Values belong to the compound of their own block, whether it stands above or below them.

Legend:
[1] = Characterization of salt form of compound A (properties of various salts, Table 8); type: physicochemical; conditions: determined by the height of the strongest peak in XRPD
in vivo = conditions: male, SD, rat
Experimental: Test objective: by giving test compounds to SD rats via single-dose intravenous and intragastric administration and measuring the concentrations of the test compounds in plasma of rats, the pharmacokinetic characteristics and bioavailability of the test compounds in rats were evaluated.
Test animal: male SD rats, about 220 g, 6-8 weeks old, 6 rats/compound, purchased from Chengdu Ddossy Experimental Animals Co., Ltd.
Test method: on the day of the test, 6 SD rats were randomly grouped according to their body weight; the animals were fasted with water available for 12 to 14 h one day before the administration, and were fed 4 h after the administration; and the administration was performed according to Table 10.
Before and after the administration, 0.1 mL of blood samples were drawn from the orbits of the animals under isoflurane anaesthesia, and placed in an EDTAK2 centrifuge tube. Centrifugation was performed at 5000 rpm at 4° C. for 10 min, and plasma was collected.
Time points for sample collection in G1 and G2 groups comprise 0, 5 min, 15 min, 30 min, 1 h, 2 h, 4 h, 6 h, 8 h and 24 h.
Before analysis and detection, all samples were stored at −80° C.
30 μL of each of plasma samples, standard curve samples and quality control samples was taken, and 200 μL of acetonitrile solution containing an internal standard was added. The resulting mixture was homogeneously mixed by vortex and centrifuged at 4° C. at 12000 rpm for 10 min. 170 μL of the supernatant was taken and placed to a 96-well plate, and LC-MS/MS analysis was performed, wherein the sample size was 0.2 μL.
The main pharmacokinetic parameters were analysed by a non-compartmental model using WinNonlin 8.0 software.

SMILES: C1=Cc2cccc(OC[C@H]3CNCCO3)c2C1.O=S(=O)(O)c1ccccc1 [Benzenesulfonate]
Crystallinity [1]: Relatively

bioavailability (in vivo): 26.1 ± 6.2%
AUC (in vivo; iv, 2 mg/kg): 2010 ± 396 ng·h/mL
Cmax (in vivo; iv, 2 mg/kg): 1460 ± 134 ng/mL
half-life (in vivo; iv, 2 mg/kg): 0.897 ± 0.013 h
AUC (in vivo; po, 10 mg/kg): 2610 ± 620 ng·h/mL
Cmax (in vivo; po, 10 mg/kg): 715 ± 127 ng/mL
Tmax (in vivo; po, 10 mg/kg): 1.67 ± 0.58 h
half-life (in vivo; po, 10 mg/kg): 1.04 ± 0.099 h
SMILES: Cc1nnn([C@@H](c2ccccc2)C2CCN(C(=O)c3cc(-c4nc5cc(NC(=O)[C@@H]6C[C@@H]6F)ccc5o4)ccn3)CC2)n1 [Compound A, (1S,2S)-2-fluoro-N-(2-(2-(4-((R)-(5-methyl-2H-tetrazol-2-yl)(phenyl)methyl)piperidine-1-carbonyl)pyridin-4-yl)benzo[d]oxazol-5-yl)cyclopropane-1-carboxamide]

SMILES: O=S(=O)(O)c1ccc2ccccc2c1 [Example 2-naphthalenesulfonate, 2-naphthalenesulfonate]
Crystallinity [1]: High

Crystallinity [1]: High
SMILES: Br [Hydrobromide]
